Laboratory results published in ChEMBL document CHEMBL6134865, “Rational Design of Methylene Blue-Raloxifene Conjugates for Efficient Breast Tumor Elimination Triggered by ERα Degradation” (J Med Chem, 2025).
Active and inactive are the calls of the source. No cut-off for these calls is given here.

How the values were obtained:
[1] = Induction of ROS generation in water assessed as decrease in ABDA absorption peak at 5 uM irradiated with 660 nm 0.4 W/cm2 light up to 5 mins by ABDA probe based UV-vis absorption spectra analysis; assay type: functional
[2] = Induction of ROS generation in water assessed as decrease in ABDA absorption peak at 1 uM irradiated with 660 nm 0.2 to 1.5 W/cm2 light for 5 mins by ABDA probe based UV-vis absorption spectra analysis; assay type: functional
[3] = Photothermal effect of compound in water assessed as increase in temperature of solution at 1 uM incubated for 5 mins in presence of presence of 660 nm 0.2 to 1.5 W/cm2 light; assay type: functional
MCF7 [4] = assay: Antiproliferative activity against human MCF7 cells assessed as inhibition of cell proliferation incubated for 48 hrs with 660 nm 0.2 to 1.5 W/cm2 light irradiation for 1 min at 6th hr of incubation time by MTT assay; assay type: functional, cell-based
MCF7 [5] = assay: Induction of ROS generation in human MCF7 cells assessed as cell percentage with elevated ROS at 1 uM incubated for 6 hrs by DCFH-DA probe based flow cytometric analysis (reference value: 0.2 %); assay type: functional
MCF7 [6] = assay: Induction of ROS generation in human MCF7 cells assessed as cell percentage with elevated ROS at 1 uM incubated for 6 hrs followed by irradiation with 660 nm 0.4 W/cm2 light for 1 min by DCFH-DA probe based flow cytometric analysis (reference value: 0.2 %); assay type: functional; conditions: time 361 min, 6.017 h
MCF7 [7] = assay: Induction of ROS generation in human MCF7 cells assessed as cell percentage with elevated ROS at 1 uM incubated for 6 hrs followed by irradiation with 660 nm 0.4 W/cm2 light for 2 min by DCFH-DA probe based flow cytometric analysis (reference value: 0.2 %); assay type: functional; conditions: time 362 min, 6.033 h
MCF7 [8] = assay: Induction of ROS generation in human MCF7 cells assessed as cell percentage with elevated ROS at 1 uM incubated for 6 hrs followed by irradiation with 660 nm 0.4 W/cm2 light for 4 min by DCFH-DA probe based flow cytometric analysis (reference value: 0.2 %); assay type: functional; conditions: time 364 min, 6.067 h
MCF7 [9] = assay: Photothermal effect in human MCF7 cells assessed as temperature of cell culture medium at 1 uM irradiated with 660 nm 0.4 W/cm2 light for 1 min (reference value: 26 degreeC); assay type: ADME, cell-based; conditions: mcf7, 1 min
MCF7 [10] = assay: Photothermal effect in human MCF7 cells assessed as temperature of cell culture medium at 1 uM irradiated with 660 nm 0.4 W/cm2 light for 3 min (reference value: 26 degreeC); assay type: ADME, cell-based; conditions: mcf7, 0.05 h
MCF7 [11] = assay: Photothermal effect in human MCF7 cells assessed as temperature of cell culture medium at 1 uM irradiated with 660 nm 0.4 W/cm2 light for 5 min (reference value: 26 degreeC); assay type: ADME, cell-based; conditions: mcf7, 5 min
MCF7 [12] = assay: Antitumor activity against human MCF7 cells xenografted in female BALB/c mouse model assessed as tumor regression at 5 mg/kg, iv measured after 14 days with 660 nm 0.4 W/cm2 light irradiation for 5 mins at 4 hrs of incubation time (reference value: 122.9 mm3); assay type: functional; conditions: time 14 day
MCF7 [13] = assay: Antitumor activity against human MCF7 cells xenografted in female BALB/c mouse model assessed as reduction in tumor weight at 5 mg/kg, iv measured after 14 days with 660 nm 0.4 W/cm2 light irradiation for 5 mins at 4 hrs of incubation time; assay type: functional, organism-based; conditions: time 14.0 day
MCF7 [14] = assay: Antitumor activity against human MCF7 cells xenografted in female BALB/c mouse model assessed as damage in tumor tissue at 5 mg/kg, iv measured after 14 days with 660 nm 0.4 W/cm2 light irradiation for 5 mins at 4 hrs of incubation time by H and E staining based analysis; assay type: functional, organism-based; conditions: time 14.0 day
Mus musculus = assay: In vivo induction of ERalpha degradation in female BALB/c mouse xenografted with human MCF7 cells assessed as decrease in ERalpha level in tumor at 5 mg/kg, iv measured after 14 days with 660 nm 0.4 W/cm2 light irradiation for 5 mins at 4 hrs of incubation time by DAPI staining based immunofluorescence analysis; assay type: functional, organism-based; conditions: time 14.0 day
[15] = Toxicity in female BALB/c mouse xenografted with human MCF7 cells assessed as change in body weight at 5 mg/kg, iv measured after 14 days; assay type: organism-based; conditions: in vivo, 336 h, time 14 day
[16] = Toxicity in female BALB/c mouse xenografted with human MCF7 cells assessed as change in white blood cell level at 5 mg/kg, iv measured after 14 days; assay type: organism-based; conditions: in vivo, 336 h, time 14 day
[17] = Toxicity in female BALB/c mouse xenografted with human MCF7 cells assessed as change in lymphocytes level at 5 mg/kg, iv measured after 14 days; assay type: organism-based; conditions: in vivo, 336 h, time 14 day
[18] = Toxicity in female BALB/c mouse xenografted with human MCF7 cells assessed as change in platelet level at 5 mg/kg, iv measured after 14 days; assay type: organism-based; conditions: in vivo, 336 h, time 14 day
[19] = Toxicity in female BALB/c mouse xenografted with human MCF7 cells assessed as change in ALT level at 5 mg/kg, iv measured after 14 days; assay type: organism-based; conditions: in vivo, 336 h, time 14 day
[20] = Toxicity in female BALB/c mouse xenografted with human MCF7 cells assessed as change in AST level at 5 mg/kg, iv measured after 14 days; assay type: organism-based; conditions: in vivo, 336 h, time 14 day
[21] = Toxicity in female BALB/c mouse xenografted with human MCF7 cells assessed as change in creatinine level at 5 mg/kg, iv measured after 14 days; assay type: organism-based; conditions: in vivo, 336 h, time 14 day
[22] = Toxicity in female BALB/c mouse xenografted with human MCF7 cells assessed as change in blood urea nitrogen level at 5 mg/kg, iv measured after 14 days with 660 nm 0.4 W/cm2 light irradiation for 5 mins at 4 hrs of incubation time; assay type: organism-based; conditions: in vivo, 336 h, time 14 day
[23] = Drug uptake in female BALB/c mouse kidney xenografted with human MCF7 cells at 5 mg/kg, iv measured after 4 hrs by fluorescence imaging analysis; assay type: ADME, organism-based; conditions: in vivo
[24] = Toxicity in female BALB/c mouse xenografted with human MCF7 cells assessed as effect on lung histology at 5 mg/kg, iv measured after 14 days by H and E staining based analysis; assay type: organism-based; conditions: in vivo, 336 h, time 14 day
[25] = Toxicity in female BALB/c mouse xenografted with human MCF7 cells assessed as effect on liver histology at 5 mg/kg, iv measured after 14 days by H and E staining based analysis; assay type: organism-based; conditions: in vivo, 336 h, time 14 day
[26] = Toxicity in female BALB/c mouse xenografted with human MCF7 cells assessed as effect on spleen histology at 5 mg/kg, iv measured after 14 days by H and E staining based analysis; assay type: organism-based; conditions: in vivo, 336 h, time 14 day
MCF7 [27] = assay: cells; conditions: Homo sapiens, MCF7, 48 h
Description: Antiproliferative activity against human MCF7 cells assessed as inhibition of cell proliferation incubated for 48 hrs by MTT assay

MCF7 [28] = assay: cells; conditions: Homo sapiens, MCF7, light or radiation study
Description: Antiproliferative activity against human MCF7 cells assessed as inhibition of cell proliferation incubated for 48 hrs with 660 nm 0.4 W/cm2 light irradiation for 2 min at 6th hr of incubation time by MTT assay

MCF7 [29] = assay: cells; conditions: Homo sapiens, MCF7, light or radiation study; remark: listed apart in the source
Description: Antiproliferative activity against human MCF7 cells assessed as inhibition of cell proliferation incubated for 48 hrs with 660 nm 0.4 W/cm2 light irradiation for 4 min at 6th hr of incubation time by MTT assay

in vivo [30] = conditions: Sprague-Dawley, rat, iv, 5 mg/kg
Description: Cmax in Sprague-Dawley rat at 5 mg/kg, iv measured after 0.5 to 168 hrs by LC-MS analysis

in vivo [31] = conditions: Sprague-Dawley, rat, iv, 5 mg/kg; remark: listed apart in the source
Description: AUC (0 to infinity) in Sprague-Dawley rat at 5 mg/kg, iv measured after 0.5 to 168 hrs by LC-MS analysis

in vivo [32] = conditions: Sprague-Dawley, rat, iv, 5 mg/kg; remark: listed apart in the source
Description: Volume of distribution at steady state in Sprague-Dawley rat at 5 mg/kg, iv measured after 0.5 to 168 hrs by LC-MS analysis

in vivo [33] = conditions: Sprague-Dawley, rat, po, 15 mg/kg
Description: Cmax in Sprague-Dawley rat at 15 mg/kg, po administered via gavage and measured after 0.5 to 168 hrs by LC-MS analysis

in vivo [34] = conditions: Sprague-Dawley, rat, po, 15 mg/kg; remark: listed apart in the source
Description: AUC (0 to infinity) in Sprague-Dawley rat at 15 mg/kg, po administered via gavage and measured after 0.5 to 168 hrs by LC-MS analysis

T (MCF7 [9]): 27.3 °C
T (MCF7 [10]): 29 °C
T (MCF7 [11]): 32.5 °C
Drug uptake [23]: Active
IC50 (MCF7 [27]): 25100 nM
IC50 (MCF7 [28]): 290 nM
IC50 (MCF7 [29]): 160 nM
Cmax (in vivo [30]): 30.2 ng/mL
AUC(0-inf) (in vivo [31]): 279 ng·h/mL
Vd (in vivo [32]): 108 L/kg
Cmax (in vivo [33]): 17.5 ng/mL
AUC(0-inf) (in vivo [34]): 357 ng·h/mL
SMILES: CCN(CC)c1ccc2nc3c4ccccc4/c(=N\CCCCCCC(=O)NCCOc4ccc(C(=O)c5c(-c6ccc(O)cc6)sc6cc(O)ccc56)cc4)cc-3sc2c1
Activity [1]: Active
Activity [2]: Active
Activity [3]: Active
Activity (MCF7 [4]): Active
Activity (MCF7 [5]): 0.7%
Activity (MCF7 [6]): 5.5%
Activity (MCF7 [7]): 6.5%
Activity (MCF7 [8]): 47.8%
Activity (MCF7 [12]): 45.3 mm3
Activity (MCF7 [13]): Active; Significant Performance Than Faslodex Observed
Activity (MCF7 [14]): Active
Activity (Mus musculus): Active; Superior To That Of Faslodex
Activity [15]: Non-toxic
Activity [16]: Non-toxic
Activity [17]: Non-toxic
Activity [18]: Non-toxic
Activity [19]: Non-toxic
Activity [20]: Non-toxic
Activity [21]: Non-toxic
Activity [22]: Non-toxic
Activity [24]: Non-toxic
Activity [25]: Non-toxic
Activity [26]: Non-toxic
